From ChEMBL document CHEMBL4308841, “Synthesis, in vitro antiproliferative activity, and kinase inhibitory effects of pyrazole-containing diarylureas and diarylamides” (Eur J Med Chem, 2018)

Tests used:
COLO 205 = assay: Growth inhibition of human COLO205 cells assessed as cell growth at 1 uM incubated for 48 hrs by sulforhodamine B assay relative to control; type: functional; details: COLO 205, 48 h, read-out: Activity
HT-29 = assay: Growth inhibition of human HT-29 cells assessed as cell growth at 1 uM incubated for 48 hrs by sulforhodamine B assay relative to control; type: functional; details: HT-29, 48 h, read-out: Activity
SK-OV-3 = assay: Growth inhibition of human SKOV3 cells incubated for 48 hrs by sulforhodamine B assay; type: functional, cell-based; details: SK-OV-3, 48 h
OVCAR-3 = assay: Growth inhibition of human OVCAR3 cells incubated for 48 hrs by sulforhodamine B assay; type: functional, cell-based; details: OVCAR-3, 48 h
SF-295 = assay: Growth inhibition of human SF295 cells assessed as cell growth at 0.01 uM incubated for 48 hrs by sulforhodamine B assay relative to control; type: functional; details: SF-295, 48 h, read-out: Activity
SNB-19 = assay: Growth inhibition of human SNB19 cells incubated for 48 hrs by sulforhodamine B assay; type: functional, cell-based; details: SNB-19, 48 h
RXF 393 = assay: Growth inhibition of human RXF393 cells incubated for 48 hrs by sulforhodamine B assay; type: functional, cell-based; details: RXF 393, 48 h
M14 = assay: Growth inhibition of human M14 cells assessed as cell growth at 0.01 uM incubated for 48 hrs by sulforhodamine B assay relative to control; type: functional; details: M14, 48 h, read-out: Activity
CAKI-1 = assay: Growth inhibition of human Caki1 cells assessed as cell growth at 100 uM incubated for 48 hrs by sulforhodamine B assay relative to control; type: functional; details: CAKI-1, 48 h, read-out: Activity
SNB-75 = assay: Growth inhibition of human SNB75 cells assessed as cell growth at 0.1 uM incubated for 48 hrs by sulforhodamine B assay relative to control; type: functional; details: SNB-75, 48 h, read-out: Activity
DU-145 [1] = assay: Growth inhibition of human DU145 cells assessed as cell growth at 0.1 uM incubated for 48 hrs by sulforhodamine B assay relative to control; type: functional; details: DU-145, 48 h, read-out: Activity
RPMI-8226 = assay: Growth inhibition of human RPMI8226 cells assessed as cell growth at 100 uM incubated for 48 hrs by sulforhodamine B assay relative to control; type: functional; details: RPMI-8226, 48 h, read-out: Activity
SF-268 = assay: Growth inhibition of human SF268 cells assessed as cell growth at 0.01 uM incubated for 48 hrs by sulforhodamine B assay relative to control; type: functional; details: SF-268, 48 h, read-out: Activity
OVCAR-8 = assay: Growth inhibition of human OVCAR8 cells assessed as cell growth at 0.1 uM incubated for 48 hrs by sulforhodamine B assay relative to control; type: functional; details: OVCAR-8, 48 h, read-out: Activity
SK-MEL-28 = assay: Growth inhibition of human SK-MEL-28 cells assessed as cell growth at 100 uM incubated for 48 hrs by sulforhodamine B assay relative to control; type: functional; details: SK-MEL-28, 48 h, read-out: Activity
OVCAR-4 = assay: Growth inhibition of human OVCAR4 cells incubated for 48 hrs by sulforhodamine B assay; type: functional, cell-based; details: OVCAR-4, 48 h
SW-620 = assay: Growth inhibition of human SW620 cells assessed as cell growth at 0.01 uM incubated for 48 hrs by sulforhodamine B assay relative to control; type: functional; details: SW-620, 48 h, read-out: Activity
NCI-H460 = assay: Growth inhibition of human NCI-H460 cells incubated for 48 hrs by sulforhodamine B assay; type: functional, cell-based; details: NCI-H460, 48 h
K562 = assay: Growth inhibition of human K562 cells assessed as cell growth at 0.1 uM incubated for 48 hrs by sulforhodamine B assay relative to control; type: functional; details: K562, 48 h, read-out: Activity
NCI-H23 = assay: Growth inhibition of human NCI-H23 cells assessed as cell growth at 1 uM incubated for 48 hrs by sulforhodamine B assay relative to control; type: functional; details: NCI-H23, 48 h, read-out: Activity
DU-145 [2] = assay: Growth inhibition of human DU145 cells incubated for 48 hrs by sulforhodamine B assay; type: functional, cell-based; details: DU-145, 48 h
KM12 [3] = assay: Growth inhibition of human KM12 cells assessed as cell growth at 0.01 uM incubated for 48 hrs by sulforhodamine B assay relative to control; type: functional; details: KM12, 48 h, read-out: Activity
MDA-MB-468 = assay: Growth inhibition of human MDA-MB-468 cells assessed as cell growth at 0.1 uM incubated for 48 hrs by sulforhodamine B assay relative to control; type: functional; details: MDA-MB-468, 48 h, read-out: Activity
NCI-H522 = assay: Growth inhibition of human NCI-H522 cells assessed as cell growth at 10 uM incubated for 48 hrs by sulforhodamine B assay relative to control; type: functional; details: NCI-H522, 48 h, read-out: Activity
BT-549 = assay: Growth inhibition of human BT549 cells assessed as cell growth at 1 uM incubated for 48 hrs by sulforhodamine B assay relative to control; type: functional; details: BT-549, 48 h, read-out: Activity
KM12 [4] = assay: Growth inhibition of human KM12 cells assessed as cell growth at 0.1 uM incubated for 48 hrs by sulforhodamine B assay relative to control; type: functional; details: KM12, 48 h, read-out: Activity
PC-3 = assay: Growth inhibition of human PC3 cells assessed as cell growth at 1 uM incubated for 48 hrs by sulforhodamine B assay relative to control; type: functional; details: PC-3, 48 h, read-out: Activity
SF-539 = assay: Growth inhibition of human SF539 cells assessed as cell growth at 0.1 uM incubated for 48 hrs by sulforhodamine B assay relative to control; type: functional; details: SF-539, 48 h, read-out: Activity
[5] = read-out: LC50 (the source's name)
[6] = read-out: pLC50 (the source's name) (converted)

## O=C(Nc1cccc(-n2cc(-c3ccncc3)c(-c3cc(O)cc(Cl)c3)n2)c1)Nc1ccc(Cl)c(C(F)(F)F)c1
COLO 205
  growth at 1 µM: 99%
HT-29
  growth at 1 µM: 99%
SK-OV-3; read-out: GI50
  GI50: 4.11 µM
SK-OV-3; [5]
  CC50: > 100 µM
SK-OV-3; read-out: TGI
  TGI: 30.7 µM
SK-OV-3; read-out: pGI50 (converted)
  GI50: 4.07 µM
SK-OV-3; [6]
  CC50: > 100 µM
SK-OV-3; read-out: pTGI (converted)
  TGI: 30.9 µM
OVCAR-3
  IC50: 2.34 µM
OVCAR-3; read-out: GI50
  GI50: 2.34 µM
OVCAR-3; [5]
  CC50: > 100 µM
OVCAR-3; read-out: TGI
  TGI: 50 µM
OVCAR-3; read-out: pGI50 (converted)
  GI50: 2.34 µM
OVCAR-3; [6]
  CC50: > 100 µM
OVCAR-3; read-out: pTGI (converted)
  TGI: 6.61 µM
SF-295
  growth at 0.01 µM: 58%
SNB-19; read-out: GI50
  GI50: 3.7 µM
SNB-19; [5]
  CC50: > 100 µM
SNB-19; read-out: TGI
  TGI: 15.9 µM
SNB-19; read-out: pGI50 (converted)
  GI50: 3.72 µM
SNB-19; [6]
  CC50: > 100 µM
SNB-19; read-out: pTGI (converted)
  TGI: 16.6 µM
RXF 393
  LC50: 12.9 µM
RXF 393; read-out: GI50
  GI50: 1.42 µM
RXF 393; read-out: TGI
  TGI: 36.6 µM
RXF 393; read-out: pGI50 (converted)
  GI50: 1.41 µM
RXF 393; read-out: pTGI (converted)
  TGI: 3.89 µM
M14
  growth at 0.01 µM: 97%
CAKI-1
  growth at 100 µM: -38%
SNB-75
  growth at 0.1 µM: 88%
DU-145 [1]
  growth at 0.1 µM: 99%
RPMI-8226
  growth at 100 µM: -30%
SF-268
  growth at 0.01 µM: 95%
OVCAR-8
  growth at 0.1 µM: 100%
SK-MEL-28
  growth at 100 µM: -89%
OVCAR-4; read-out: GI50
  GI50: 3.21 µM
OVCAR-4; [5]
  CC50: > 100 µM
OVCAR-4; read-out: TGI
  TGI: 92.3 µM
OVCAR-4; read-out: pGI50 (converted)
  GI50: 3.24 µM
OVCAR-4; [6]
  CC50: > 100 µM
OVCAR-4; read-out: pTGI (converted)
  TGI: 9.33 µM
SW-620
  growth at 0.01 µM: 97%
NCI-H460; read-out: GI50
  GI50: 2.59 µM
NCI-H460; [5]
  CC50: 85.8 µM
NCI-H460; read-out: TGI
  TGI: 73.7 µM
NCI-H460; read-out: pGI50 (converted)
  GI50: 2.57 µM
NCI-H460; [6]
  CC50: 87.1 µM
NCI-H460; read-out: pTGI (converted)
  TGI: 7.41 µM
K562
  growth at 0.1 µM: 94%
NCI-H23
  growth at 1 µM: 96%
DU-145 [2]; read-out: GI50
  GI50: 3.77 µM
DU-145 [2]; [5]
  CC50: 55.8 µM
DU-145 [2]; read-out: TGI
  TGI: 11.7 µM
DU-145 [2]; read-out: pGI50 (converted)
  GI50: 3.31 µM
DU-145 [2]; [6]
  CC50: 56.2 µM
DU-145 [2]; read-out: pTGI (converted)
  TGI: 11.7 µM
KM12 [3]
  growth at 0.01 µM: 91%
MDA-MB-468
  growth at 0.1 µM: 94%
NCI-H522
  growth at 10 µM: -16%
BT-549
  growth at 1 µM: 90%
KM12 [4]
  growth at 0.1 µM: 92%
PC-3
  growth at 1 µM: 83%
SF-539
  growth at 0.1 µM: 95%

## COc1cc(Cl)cc(-c2nn(-c3cccc(NC(=O)c4ccc(N5CCOCC5)c(C(F)(F)F)c4)c3)cc2-c2ccncc2)c1
COLO 205
  growth at 1 µM: 104%
HT-29
  growth at 1 µM: 93%
SK-OV-3; read-out: GI50
  GI50: > 100 µM
SK-OV-3; [5]
  CC50: > 100 µM
SK-OV-3; read-out: TGI
  TGI: > 100 µM
SK-OV-3; read-out: pGI50 (converted)
  GI50: > 100 µM
SK-OV-3; [6]
  CC50: > 100 µM
SK-OV-3; read-out: pTGI (converted)
  TGI: > 100 µM
OVCAR-3
  IC50: 53.1 µM
OVCAR-3; read-out: GI50
  GI50: 5.31 µM
OVCAR-3; [5]
  CC50: > 100 µM
OVCAR-3; read-out: TGI
  TGI: > 100 µM
OVCAR-3; read-out: pGI50 (converted)
  GI50: 53.7 µM
OVCAR-3; [6]
  CC50: > 100 µM
OVCAR-3; read-out: pTGI (converted)
  TGI: > 100 µM
SF-295
  growth at 0.01 µM: 90%
SNB-19; read-out: GI50
  GI50: > 100 µM
SNB-19; [5]
  CC50: > 100 µM
SNB-19; read-out: TGI
  TGI: > 100 µM
SNB-19; read-out: pGI50 (converted)
  GI50: > 100 µM
SNB-19; [6]
  CC50: > 100 µM
SNB-19; read-out: pTGI (converted)
  TGI: > 100 µM
RXF 393
  LC50: > 100 µM
RXF 393; read-out: GI50
  GI50: 0.83 µM
RXF 393; read-out: TGI
  TGI: 23.9 µM
RXF 393; read-out: pGI50 (converted)
  GI50: 0.813 µM
RXF 393; read-out: pTGI (converted)
  TGI: 24 µM
M14
  growth at 0.01 µM: 97%
CAKI-1
  growth at 100 µM: 14%
SNB-75
  growth at 0.1 µM: 54%
DU-145 [1]
  growth at 0.1 µM: 97%
RPMI-8226
  growth at 100 µM: 10%
SF-268
  growth at 0.01 µM: 95%
OVCAR-8
  growth at 0.1 µM: 100%
SK-MEL-28
  growth at 100 µM: 19%
OVCAR-4; read-out: GI50
  GI50: 3.97 µM
OVCAR-4; [5]
  CC50: > 100 µM
OVCAR-4; read-out: TGI
  TGI: > 100 µM
OVCAR-4; read-out: pGI50 (converted)
  GI50: 39.8 µM
OVCAR-4; [6]
  CC50: > 100 µM
OVCAR-4; read-out: pTGI (converted)
  TGI: > 100 µM
SW-620
  growth at 0.01 µM: 96%
NCI-H460; read-out: GI50
  GI50: 4.79 µM
NCI-H460; [5]
  CC50: > 100 µM
NCI-H460; read-out: TGI
  TGI: > 100 µM
NCI-H460; read-out: pGI50 (converted)
  GI50: 4.79 µM
NCI-H460; [6]
  CC50: > 100 µM
NCI-H460; read-out: pTGI (converted)
  TGI: > 100 µM
K562
  growth at 0.1 µM: 95%
NCI-H23
  growth at 1 µM: 96%
DU-145 [2]; read-out: GI50
  GI50: > 100 µM
DU-145 [2]; [5]
  CC50: > 100 µM
DU-145 [2]; read-out: TGI
  TGI: > 100 µM
DU-145 [2]; read-out: pGI50 (converted)
  GI50: > 100 µM
DU-145 [2]; [6]
  CC50: > 100 µM
DU-145 [2]; read-out: pTGI (converted)
  TGI: > 100 µM
KM12 [3]
  growth at 0.01 µM: 96%
MDA-MB-468
  growth at 0.1 µM: 92%
NCI-H522
  growth at 10 µM: 52.7%
BT-549
  growth at 1 µM: 59%
KM12 [4]
  growth at 0.1 µM: 95%
PC-3
  growth at 1 µM: 73%
SF-539
  growth at 0.1 µM: 85%
